Experimental data published in ChEMBL document CHEMBL1817638, “Ligand polarizability contributes to tau fibril binding affinity” (Bioorg Med Chem, 2011).
Calls of active or inactive are those of the source. The calls are words filed in the database; no cut-off is given here.

Assays:
[1] = Displacement of Thioflavin S from arachidonic acid-induced synthetic Tau 2N4R aggregate by fluorescence assay
[2] = Displacement of Thioflavin S from Octadecyl sulfate-induced synthetic Tau 2N4R aggregate by fluorescence assay
[3] = Displacement of Thioflavin S from heparin-induced synthetic Tau 2N4R aggregate by fluorescence assay
[4] = biological target: Microtubule-associated protein tau (Homo sapiens) (UniProt P10636); assay: Displacement of Thioflavin S from recombinant human PHF-tau expressed in Escherichia coli by fluorescence assay
[5] = Displacement of Thioflavin S from synthetic Tau 2N4R aggregate by fluorescence assay
[6] = Displacement of Thioflavin T from synthetic Tau 2N4R aggregate by fluorescence assay at 1 uM probe concentration
[7] = Displacement of Thioflavin S from synthetic Tau 2N4R aggregate by fluorescence assay at 10 uM probe concentration
[8] = biological target: Microtubule-associated protein tau (Homo sapiens) (UniProt P10636); assay: Displacement of Thioflavin T from Octadecyl sulfate-induced synthetic Tau 0N4R aggregate at 17 pm to 10 uM by fluorescence assay at increasing probe concentration
[9] = biological target: Microtubule-associated protein tau (Homo sapiens) (UniProt P10636); assay: Displacement of Thioflavin T from Octadecyl sulfate-induced synthetic Tau 0N4R aggregate at 17 pm to 10 uM by fluorescence assay at 0.1 uM probe concentration

Sequence of Microtubule-associated protein tau (Homo sapiens) (P10636 whole entry): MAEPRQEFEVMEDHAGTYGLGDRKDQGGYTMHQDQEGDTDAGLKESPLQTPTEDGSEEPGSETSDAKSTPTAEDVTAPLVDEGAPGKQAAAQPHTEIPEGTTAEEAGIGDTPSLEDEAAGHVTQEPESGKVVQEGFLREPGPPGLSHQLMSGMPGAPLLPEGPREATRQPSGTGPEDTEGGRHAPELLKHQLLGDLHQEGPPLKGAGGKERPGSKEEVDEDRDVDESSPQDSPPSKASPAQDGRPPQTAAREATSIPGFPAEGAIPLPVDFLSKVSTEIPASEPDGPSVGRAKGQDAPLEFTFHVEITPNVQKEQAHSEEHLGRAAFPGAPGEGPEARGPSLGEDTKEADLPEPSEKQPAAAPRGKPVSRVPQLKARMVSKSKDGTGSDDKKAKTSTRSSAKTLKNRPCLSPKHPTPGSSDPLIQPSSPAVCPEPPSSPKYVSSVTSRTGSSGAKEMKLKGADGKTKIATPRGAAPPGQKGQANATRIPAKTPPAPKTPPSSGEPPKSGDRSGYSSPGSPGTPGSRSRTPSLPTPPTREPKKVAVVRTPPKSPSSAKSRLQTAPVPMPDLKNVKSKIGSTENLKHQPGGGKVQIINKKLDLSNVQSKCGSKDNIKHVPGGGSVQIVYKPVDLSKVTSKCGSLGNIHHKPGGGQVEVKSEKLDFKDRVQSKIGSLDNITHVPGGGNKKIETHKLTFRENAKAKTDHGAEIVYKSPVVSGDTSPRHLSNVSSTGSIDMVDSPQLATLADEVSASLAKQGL

Row | Activity [1] | Activity [2] | Activity [3] | Activity [6] | Activity [7] | Compound | also measured
1 | Active | Active | Active | – | – | O=C(O)c1cc(/N=N/c2ccc(-c3ccc(/N=N/c4ccc(O)c(C(=O)O)c4)cc3)cc2)ccc1O | –
2 | Active | Active | Active | – | – | CN(C)c1ccc(/C=C2\C(=O)Nc3ccc(I)cc32)cc1 | Activity [4]: Active; Activity [5]: Active
3 | – | – | – | Active | Active | N=C1C=CC(=C(c2ccc(N)cc2)c2ccc(N)cc2)C=C1 | –
4 | – | – | – | Active | Active | CN(C)c1ccc(C(=C2C=CC(=[N+](C)C)C=C2)c2ccc(N(C)C)cc2)cc1 | –
5 | – | – | – | – | – | CN(C)c1ccc(-c2nc3ccccc3s2)cc1 | Activity [8]: inactive; Activity [9]: Active
6 | Active | Active | Active | Active | inactive | C/N=c1\ccc2nc3ccc(N)cc3sc-2c1 | –
7 | Active | Active | Active | – | – | COc1ccc2nc(/N=N/c3ccc(N(C)C)cc3)sc2c1 | –
8 | – | – | – | Active | inactive | Cc1cc2nc3ccc(N(C)C)cc3[s+]c2cc1N | –
9 | – | – | – | Active | Active | O=C1C=CC(=C(c2ccc(O)cc2)c2ccc(O)cc2)C=C1 | –
10 | – | – | – | Active | inactive | Nc1ccc2nc3ccc(N)cc3[s+]c2c1 | –
11 | – | – | – | Active | inactive | CN(C)c1ccc2nc3ccc(N)cc3[s+]c2c1 | –
12 | – | – | – | – | – | CN(C)c1ccc(/C=C2/C(=O)Nc3ccccc32)cc1 | Activity [8]: Active; Activity [9]: Active
13 | – | – | – | Active | Active | CN(C)c1ccc(C(=C2C=CC(=[N+](C)C)C=C2)c2ccccc2)cc1 | –
14 | Active | Active | Active | Active | inactive | CN(C)c1ccc2nc3ccc(=[N+](C)C)cc-3sc2c1 | –
15 | – | – | – | Active | inactive | CNc1ccc2nc3ccc(N(C)C)cc3[s+]c2c1 | –
